This is an account of results in article PMC10838150 (Toxicology in vitro : an international journal published in …, 2021).

Like-named read-outs stand apart in the source and are kept apart here.

Data set [1] relates to HEK293. In words: Metabolic clearance. The following applies: HEK293, 1 μM.
Data set [2] can be described thus: Metabolic clearance. The following applies: human, HEK293 cells, Mean Half-life, HEK293, 1 μM, one-phase exponential decay.
Data set [3] deals with HepG2. In words: Metabolic clearance. The following applies: HepG2, 1 μM.
Data set [4] can be described thus: Metabolic clearance. The following applies: human, HepG2 cells, Mean Half-life, HepG2, 1 μM, one-phase exponential decay.
Data set [5] can be described thus: Metabolic clearance. The following applies: human, MCF7 cells, Mean Half-life, MCF7, 1 μM, one-phase exponential decay.
For data set [6], the system named is MCF7. As to the kind of experiment: Metabolic clearance. The following applies: MCF7, 1 μM.
Data set [7] can be described thus: Metabolic clearance. The following applies: human, Mean Half-life, 50-donor pool PHHs, one-phase exponential decay.
The subject of data set [8] is 50-donor pool PHHs. As to the kind of experiment: Metabolic clearance. The following applies: 1 μM.
The test system of data set [9] is MCF7.
In data set [10] the test system is PHHs. The following applies: 150 minutes, 50 μM 7HC.
In data set [11] the test system is HEK293.
The subject of data set [12] is HepG2.
Data set [13] has as its system CYP1A2. As to the kind of experiment: CYP450-Glo bioluminescent assay CYP1A2 in Tox21 cell lines. The format is cell-based. The following applies: 24 hours pretreatment.
For data set [14], the system named is HepG2. The following applies: human, 1 μM.
In data set [15] the test system is 50-donor pool PHHs. The following applies: human, 1 μM.
In data set [16] the test system is HEK293. The following applies: human, 1 μM.
Data set [17] relates to MCF7. The following applies: human, 1 μM.
The target in data set [18] is T1, CYP2B6 (Homo sapiens, UniProt P20813).
T1 sequence (P20813 1-491): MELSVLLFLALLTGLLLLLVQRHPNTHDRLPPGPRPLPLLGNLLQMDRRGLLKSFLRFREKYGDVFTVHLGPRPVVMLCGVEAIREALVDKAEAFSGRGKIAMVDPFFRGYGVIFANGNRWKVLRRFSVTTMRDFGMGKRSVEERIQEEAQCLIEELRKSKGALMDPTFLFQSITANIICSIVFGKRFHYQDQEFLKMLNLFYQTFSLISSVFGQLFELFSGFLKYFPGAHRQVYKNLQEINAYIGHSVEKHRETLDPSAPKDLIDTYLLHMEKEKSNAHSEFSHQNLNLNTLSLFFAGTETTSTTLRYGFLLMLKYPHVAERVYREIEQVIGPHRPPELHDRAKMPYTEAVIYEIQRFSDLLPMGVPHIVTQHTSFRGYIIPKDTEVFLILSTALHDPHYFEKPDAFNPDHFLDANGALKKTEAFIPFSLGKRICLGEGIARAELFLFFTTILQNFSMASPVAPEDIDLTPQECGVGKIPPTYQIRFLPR
In words: Hydroxybupropion formation from bupropion in HEK293. The following applies: HEK293 cells. The format is in vitro ADME.

Data set [19] has as its target T1, CYP2B6. In words: Hydroxybupropion formation from bupropion in HepG2. The format is in vitro ADME. The following applies: HepG2 cells.
Data set [20] deals with T1, CYP2B6. As to the kind of experiment: Hydroxybupropion formation from bupropion in HCT116. Type of data set: in vitro ADME. The following applies: HCT116 cells.
Data set [21] relates to CYP2B6. In words: Hydroxybupropion formation from bupropion in C3H10T1/2. The format is in vitro ADME, mouse. The following applies: C3H10T1/2, 24 h, Michaelis-Menten fit.
Data set [22] deals with CYP3A4/5. As to the kind of experiment: 1-Hydroxymidazolam formation from midazolam in PHH suspensions. The format is in vitro ADME, human.
Data set [23] relates to CYP3A4/5. In words: 1-Hydroxymidazolam formation from midazolam in HepG2. Type of data set: in vitro ADME, human.
Data set [24] deals with CYP1A2. As to the kind of experiment: Acetaminophen formation from phenacetin in C3H10T1/2. The format is in vitro ADME, mouse.
Data set [25] concerns CYP1A2. In words: Acetaminophen formation from phenacetin in HepG2. Type of data set: in vitro ADME, human.
The test system of data set [26] is sulfotransferase. The following applies: ref Ishii and Tamura, 2003, cited from earlier work.
The mark [27] stands for this setting: HepG2, 24 h, Michaelis-Menten fit.

Usually half-life stands for the time in which the quantity being followed falls by half. Low readings indicate fast loss, high ones slow loss. In the case of `O=c1ccc2ccc(O)cc2o1` [7HC, 7-hydroxycoumarin], the “Percent Depletion 240 min” value worked out at 50% in data set [1], 27% in data set [3], 40% in [6] and 99% in data set [8]. Besides, the “Percent Depletion 24 hour” value in [1] was 99%. Besides, the “Mean Half-life” value in data set [1] (one-phase exponential decay) turned out to be 3.498 h; in data set [3] (one-phase exponential decay) it was 4.843 h; in data set [6] (one-phase exponential decay) it was 4.875 h; in data set [8] (one-phase exponential decay) it was 0.378 h. The half-life at 1 μM in data set [2] is ~3.5 h; in [4] it was ~4.83 h; in [5] it was ~4.83 h; in data set [7] it was ~0.383 h.

Turning to `O=C(O)[C@H]1O[C@@H](Oc2ccc3ccc(=O)oc3c2)[C@H](O)[C@@H](O)[C@@H]1O` [7HCG, 7-hydroxycoumarin glucuronide], the “Phase II Metabolite Formation Rate” value in [9] (MCF7, 150 minutes, 50 μM 7HC) is reported as 1.34 ± 0.206 pmol/minute-million cells; in [9] (MCF7, 24 hours, 50 μM 7HC), 0.809 ± 0.0457 pmol/minute-million cells; in data set [10], 190 ± 41.8 pmol/minute-million cells; in data set [11] (HEK293, 150 minutes, 50 μM 7HC) it was “-------------^1”; in data set [11] (HEK293, 24 hours, 50 μM 7HC) it was “-------------^1”; in data set [12] (HepG2, 150 minutes, 50 μM 7HC), 1.96 ± 0.887 pmol/minute-million cells. The “Phase II Metabolite Formation Rate” value in data set [12] (HepG2, 24 hours, 50 μM 7HC) turned out to be 2.89 ± 0.563 pmol/minute-million cells.

As to `Nn1nnc2ccccc21` [ABT, aminobenzotriazole], the “inhibition of CYP1A2 luminescent metabolite formation” value in data set [13] (ABT 1 mM, HepG2, MCF7, CHO-K1, C3H10T1/2, GH3TRE-Luc) is on record as “only inhibited in CHO-K1 cells”.

For `O=C(O)[C@H]1O[C@@H](Oc2ccc(C(c3ccc(O)cc3)(C(F)(F)F)C(F)(F)F)cc2)[C@H](O)[C@@H](O)[C@@H]1O` [BPAF G, bisphenol AF glucuronide], the “Phase II Metabolite Formation Rate” value is “-------------^1” in [9] (MCF7, 150 minutes, 50 μM BPAF or BPS); “-------------^1” in data set [9] (MCF7, 24 hours, 50 μM BPAF or BPS); “-------------^1” in data set [11] (HEK293, 150 minutes, 50 μM BPAF or BPS); “-------------^1” in data set [11] (HEK293, 24 hours, 50 μM BPAF or BPS); “-------------^1” in data set [12] (HepG2, 150 minutes, 50 μM BPAF or BPS).

For `Oc1ccc(C(c2ccc(O)cc2)(C(F)(F)F)C(F)(F)F)cc1` [BPAF, bisphenol AF], the “Percent Depletion 240 min” value in data set [14] (240 min) is 36 ±/- 8.2%; in [15] (240 min) it was 82 ±/- 2.9%; in [16] (240 min), 36 ±/- 5.4%; in data set [17] (240 min) it was 42 ±/- 7.7%. Also, the entries for the “Percent Depletion 24 hour” value in [14] (24 h), in [16] (24 h) and in data set [17] (24 h) were 66 ±/- 6.6%, 60 ±/- 4.5% and 55 ±/- 7.4%, respectively. The “Mean Half-life (fast)” value in [14] (other cell line) was found to be 0.52 h; in [17] (other cell line), 0.388 h. Moreover, the “Mean Half-life (slow)” value in data set [14] (other cell line) is listed as 1,626 min; in data set [16] (other cell line), ~1,887 min; in [17] (other cell line) it was ~9,684 min. Further, in data set [15] (hepatocytes), the “Mean Half-life” value is 1.44 h.

What is called Km is the concentration of substrate that gives half-maximal velocity. Take `CC(NC(C)(C)C)C(=O)c1cccc(Cl)c1` (stereo not drawn) [Bupropion, bupropion]: the Km at 24 h in [18] is 1260 ± 734 µM; in [19] it was 4.79 ± 5.48 µM; in data set [20] it was 1910 ± 1050 µM. The “Vmax CYP2B6” value in data set [21] stood at 0.0422 ± 0.0119.

For `Cc1ncc2n1-c1ccc(Cl)cc1C(c1ccccc1F)=NC2` [Midazolam, midazolam], the “Vmax CYP3A4/5” value is listed as 187 ± 8.35 in data set [22] (PHH, 30 min, Michaelis-Menten fit) and 0.0177 ± 0.000912 in [23] (setting [27]). For the same compound, the Km at 30 min in [22] (human) was determined as 10.7 ± 1.34 µM. Further, the Km at 24 h in [23] (human, HepG2 cells) amounted to 0.969 ± 0.268 µM.

Take `COc1ccc2[nH]c([S+]([O-])Cc3ncc(C)c(OC)c3C)nc2c1` (stereo not drawn) [OMP, omeprazole]: the “induction of CYP1A2 luminescence” value in data set [13] (OMP 100 μM, Tox21 cell lines) was “only marginal increased luminescence”.

As for `CCOc1ccc(NC(C)=O)cc1` [Phenacetin], the “Vmax CYP1A2” value is recorded as 0.168 ± 0.0393 in data set [24] (C3H10T1/2, 24 h, Michaelis-Menten fit) and 0.320 ± 0.0234 in data set [25] (setting [27]). Also, the Km at 24 h stood at 247 ± 111 µM in data set [24] (mouse, C3H10T1/2 cells) and 38.4 ± 11.8 µM in data set [25] (human, HepG2 cells).

Consider `CC(C)(c1ccc(O)cc1)c1ccc(O)cc1` [bisphenol A], for which, in data set [26] (after 5 days incubations with 10 μM exposure), the depletion is listed as 4%. Besides, the Km in [26] (read-out: apparent Km for sulfotransferase activity) is 74 µM.
